Test results reported in patent US8334315B2, “Substituted aromatic carboxamide and urea derivatives as vanilloid receptor ligands” (Gruenenthal GmbH, priority 2009, dated 2012).

Biological target: T1, rat-species vanilloid receptor 1 (VR1/TRPV1) (Rattus norvegicus, UniProt O35433)
T1 construct: endogenous in cells; host or cells: primary cells dissociated from rat dorsal root ganglia (DRG), cultured 2-3 days with NGF
Test: Functional test on rat VR1, NADA (N-arachidonoyl dopamine) stimulus
Format: cell-based
Design: key to Ki (rat) NADA: agonist / partial agonist / no effect: AG=agonist; pAG=partial agonist; NE=no effect
Source text: I. Functional Testing Carried Out on the Vanilloid Receptor 1 (VRI/TRPV1 Receptor)
The agonistic or antagonistic effect of the substances to be tested on the rat-species vanilloid receptor 1 (VR1/TRPV1) can be determined using the following assay. In this assay, the influx of Ca^2+ through the receptor channel is quantified with the aid of a Ca^2+-sensitive dye (type Fluo-4, Molecular Probes Europe BV, Leiden, the Netherlands) in a fluorescent imaging plate reader (FLIPR, Molecular Devices, Sunnyvale, USA).
The vertebral column is removed from decapitated rats and placed immediately into cold HBSS buffer (Hank's buffered saline solution, Gibco Invitrogen GmbH, Karlsruhe, Germany), i.e. buffer located in an ice bath, mixed with 1% by volume (per cent by volume) of an AA solution (antibiotic/antimyotic solution, PAA, Pasching, Austria). […] The resulting pellet is respectively taken up in 250 μL of complete medium and the cell count is determined.
The number of cells in the suspension is set to 3×10^5 per ml and 150 μL of this suspension are in each case introduced into a recess in the cell culture plates coated as described hereinbefore. […] The Ca^2+-dependent fluorescence is in this case measured before and after the addition of substances (λex=488 nm, λem=540 nm). Quantification is carried out by measuring the highest fluorescence intensity (FC, fluorescence counts) over time. […]

T1 sequence (O35433 whole entry): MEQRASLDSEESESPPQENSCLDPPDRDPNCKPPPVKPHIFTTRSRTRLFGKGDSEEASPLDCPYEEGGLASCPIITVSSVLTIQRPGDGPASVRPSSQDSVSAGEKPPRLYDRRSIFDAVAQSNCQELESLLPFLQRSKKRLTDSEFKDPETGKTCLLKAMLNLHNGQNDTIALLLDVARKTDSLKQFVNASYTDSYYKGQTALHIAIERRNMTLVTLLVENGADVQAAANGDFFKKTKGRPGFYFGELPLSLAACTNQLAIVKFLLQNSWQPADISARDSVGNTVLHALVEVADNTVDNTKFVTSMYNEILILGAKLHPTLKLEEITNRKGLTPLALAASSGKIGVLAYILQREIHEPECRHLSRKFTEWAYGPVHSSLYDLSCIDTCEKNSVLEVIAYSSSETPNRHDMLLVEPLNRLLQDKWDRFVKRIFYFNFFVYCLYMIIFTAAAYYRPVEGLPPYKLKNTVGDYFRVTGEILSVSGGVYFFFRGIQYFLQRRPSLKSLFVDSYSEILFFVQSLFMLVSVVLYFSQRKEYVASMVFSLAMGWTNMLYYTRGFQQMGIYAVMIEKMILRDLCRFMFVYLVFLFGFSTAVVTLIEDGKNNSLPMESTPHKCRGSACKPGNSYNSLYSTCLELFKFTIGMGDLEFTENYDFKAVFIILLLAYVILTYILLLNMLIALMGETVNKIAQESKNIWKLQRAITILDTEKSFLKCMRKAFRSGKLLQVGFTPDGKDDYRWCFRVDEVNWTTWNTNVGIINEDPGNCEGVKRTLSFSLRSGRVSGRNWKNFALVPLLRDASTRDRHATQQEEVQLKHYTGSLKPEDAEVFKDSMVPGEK

Ki	Ki (rat) NADA: agonist / partial agonist / no effect	SMILES
39.1 nM	–	CC(C)(C)c1cc(CNC(=O)Nc2ccc3c(c2)CCC3)n(-c2cccc(Cl)c2)n1 [Example 79, 1-((3-tert-butyl-1-(3-chlorophenyl)-1H-pyrazol-5-yl)methyl)-3-(2,3-dihydro-1H-inden-5-yl)urea]
–	AG	Cc1nc2ccc(C(C)C(=O)NCc3cc(C(F)(F)F)nn3-c3cccc(Cl)c3)cc2s1 (centres unmarked) [Example 45, N-((1-(3-chlorophenyl)-3-(trifluoromethyl)-1H-pyrazol-5-yl)methyl)-2-(2-methylbenzo[d]thiazol-6-yl)propanamide]
